These are literature values, as cited in US10822400B2, “Dynamin 2 inhibitor for the treatment of Duchenne's muscular dystrophy” (UNIVERSITE DE STRASBOURG, priority 2015, dated 2020).

pIC50: −log10 of the molar value.

For one data set, the system named is mitochondrial division. The note with it: read-out: IC50 as mitochondrial division inhibitor.
The target of data set [1] is receptor-mediated and synaptic vesicle endocytosis. The note with it: read-out: IC50 for inhibition of receptor-mediated and synaptic vesicle endocytosis.
The target in another data set is T1, dynamin 2 (Homo sapiens, UniProt P50570).
T1 sequence (P50570 1-870): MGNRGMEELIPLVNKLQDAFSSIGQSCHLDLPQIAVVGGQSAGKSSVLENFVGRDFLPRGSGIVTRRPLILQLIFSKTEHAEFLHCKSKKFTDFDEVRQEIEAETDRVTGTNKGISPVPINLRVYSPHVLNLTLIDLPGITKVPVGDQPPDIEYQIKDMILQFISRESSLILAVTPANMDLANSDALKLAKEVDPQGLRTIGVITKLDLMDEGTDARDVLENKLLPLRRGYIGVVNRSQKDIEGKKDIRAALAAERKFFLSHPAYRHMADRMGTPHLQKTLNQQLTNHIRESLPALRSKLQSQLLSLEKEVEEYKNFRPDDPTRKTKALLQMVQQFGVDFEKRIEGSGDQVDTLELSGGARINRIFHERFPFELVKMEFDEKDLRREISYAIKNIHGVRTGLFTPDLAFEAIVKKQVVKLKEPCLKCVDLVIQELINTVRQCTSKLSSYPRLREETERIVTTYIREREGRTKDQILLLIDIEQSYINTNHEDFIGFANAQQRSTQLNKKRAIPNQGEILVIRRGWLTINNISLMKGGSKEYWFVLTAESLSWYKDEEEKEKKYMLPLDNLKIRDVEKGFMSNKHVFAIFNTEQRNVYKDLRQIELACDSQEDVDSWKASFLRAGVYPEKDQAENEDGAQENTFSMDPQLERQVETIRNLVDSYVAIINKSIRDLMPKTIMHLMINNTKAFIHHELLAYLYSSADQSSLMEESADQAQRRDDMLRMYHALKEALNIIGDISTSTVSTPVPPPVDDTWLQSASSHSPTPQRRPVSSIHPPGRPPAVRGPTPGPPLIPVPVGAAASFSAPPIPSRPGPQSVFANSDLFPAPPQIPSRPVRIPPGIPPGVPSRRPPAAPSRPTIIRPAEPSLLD
The conditions noted are these: read-out: IC50 for inhibition of dynamin 2 (dynamin II).

A word on the pIC50: it is the negative decadic logarithm of the IC50, by convention in mol/L. For `COc1cc(-n2c(S)nc3ccccc3c2=O)c(Cl)cc1Cl` [M-divi 1, 3-(2,4-Dichloro-5-methoxyphenyl)-2-sulfanylquinazolin-4(3H)-one], the pIC50 with mitochondrial division is 5.00.
For `CCCCCCCCCCCCCC[N+](C)(C)C` [MiTMAB, Tetradecyltrimethylammonium bromide], in data set [1], the pIC50 is 5.66.
With `O=C(NN=Cc1cc(O)c(O)cc1O)c1cc2ccccc2cc1O` [Hydroxy-Dynasore, 3-Hydroxy-N′-[(2,4,5-trihydroxyphenyl)methylidene]naphthalene-2-carbohydrazide], at dynamin 2, the pIC50 was 5.59.
